pIC50: −log10 of the molar value.

The values that follow come from patent US5585381A, “Pyrimidine derivatives and pharmaceutical composition” (Kureha Chemical Industry Co., Ltd., priority 1994, dated 1996).

Assay [1] deals with T1, angiotensin II receptor subtype 1 (AT1) (Oryctolagus cuniculus, UniProt P34976).
T1 construct: from adrenal glands in rabbits; from tissue; host or cells: rabbit adrenal glands
T1 sequence (P34976 1-359): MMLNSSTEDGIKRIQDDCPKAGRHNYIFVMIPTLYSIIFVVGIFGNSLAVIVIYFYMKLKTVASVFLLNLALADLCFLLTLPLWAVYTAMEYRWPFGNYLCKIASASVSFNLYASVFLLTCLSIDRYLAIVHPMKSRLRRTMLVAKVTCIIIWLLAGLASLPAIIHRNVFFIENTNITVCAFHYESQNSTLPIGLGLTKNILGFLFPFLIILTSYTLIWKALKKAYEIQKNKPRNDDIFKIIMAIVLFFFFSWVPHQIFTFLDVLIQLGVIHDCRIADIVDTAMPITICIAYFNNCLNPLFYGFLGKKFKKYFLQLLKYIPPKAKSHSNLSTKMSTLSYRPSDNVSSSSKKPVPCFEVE
Description: Binding to angiotensin II receptor subtype 1 (AT1). The following applies: 3H-angiotensin II tracer; for pIC50: room temperature, 3 hours. Also noted: species or system rabbits (adrenal glands). On the procedure: (§1) In this Example, the affinity to the angiotensin II receptor subtype 1 or subtype 2 was evaluated by a binding assay in accordance with the method described in Biochem. Pharmacol., 33, 4057-4062 (1984).
(§2) Specifically, the measurement of the total binding in the presence of each drug was performed as follows:
(§3) A mixture (final volume=0.25 ml) of a drug in a given concentration (the drug was dissolved in DMSO, and diluted to a double volume with a buffer attached to a drug discovery system to prepare sample for the assay; 0,025 ml), a tracer (0.025 ml), and receptors (0.2 ml) was incubated [in the case of the angiotensin II receptor subtype 1 (AT1), at room temperature for 3 hours, and in the case of the subtype 2 (AT2), at 37° C. for 1 hour]. Then, the reaction mixture was filtered with suction (GF/C filter was used in AT1, and GF/B filter was used in AT2). The filter papers after filtration with suction (the tracer bound to the receptors) were counted by a γ-well counter (ARC-500, Aloka). The non-specific bindings were measured by repeating the above method, except that a large excess amount of a displacer was added. The specific binding of the drug in the given concentration was calculated by subtracting the non-specific binding from the total binding, respectively.
(§4) In AT1 and AT2, the percentages to inhibit the bindings of radioactive ligands (tracer) to receptors by the drugs to be tested (IC50 value of concentration to show 50% inhibition, or binding inhibition % in 100 μM) were measured, using the drugs to be tested and control drugs in the given concentration.

Assay [2] addresses T2, angiotensin II receptor subtype 2 (AT2) (Bos taurus, UniProt G5E6F7).
T2 construct: from cerebellar cortex in bovine; from tissue; host or cells: bovine cerebellar cortex
T2 sequence (G5E6F7 1-362): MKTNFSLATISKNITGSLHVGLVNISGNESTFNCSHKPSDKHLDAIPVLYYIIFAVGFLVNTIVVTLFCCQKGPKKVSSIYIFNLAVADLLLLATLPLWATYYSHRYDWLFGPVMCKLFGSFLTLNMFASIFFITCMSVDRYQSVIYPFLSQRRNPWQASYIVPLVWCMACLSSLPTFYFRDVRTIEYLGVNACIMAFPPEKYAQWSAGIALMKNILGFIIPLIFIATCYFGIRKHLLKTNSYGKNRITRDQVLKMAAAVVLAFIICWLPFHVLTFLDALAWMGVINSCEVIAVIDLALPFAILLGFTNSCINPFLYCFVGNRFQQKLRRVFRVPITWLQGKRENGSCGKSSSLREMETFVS
Description: Binding to angiotensin II receptor subtype 2 (AT2). Further details: species or system bovine (cerebellar cortex). The following applies: 125I-Tyr4-angiotensin II tracer, 37° C., 1 hour. On the procedure: as §1, §2, §3, §4
from cerebellar cortex in bovine
tracer: ^125 I-Tyr^4 -angiotensin II

Assay [3] relates to kidney disease model rats. Description: Renal function indicatory value (action to kidney diseases). As to conditions: 20 mg/kg/day per os, two weeks; for Creatinine clearance (CCr): control 0.20; for Creatinine (serum, Scr): control 2.0; for Urea nitrogen (BUN): control 100. The format is in vivo, Sprague-Dawley female rats. On the procedure: The kidney disease model rats were prepared by ligature of branches of renal artery in accordance with the conventional method, that is, the left hilum renalis of Sprague-Dawley female rats was exposed under anesthesia, and one of four secondary branches of renal artery was left unligated, while the remaining three branches were ligated, respectively. […] Each group consisted of eight rats. The drugs to be tested (20 mg/kg) were administered to each administering group, and only water was administered to control group. After two days from the administration, the systolic blood pressure was measured by the tail cuff method using a blood pressure measuring apparatus (UR5000; Ueda).
The kidney disease model rats were prepared as in Example 21. Fifteen groups (8 rats per group) were sleeked in a manner so that there were no major differences between each group in the serum creatinine value and the urea nitrogen value indicating renal function. The rats in each group were allowed to freely take up feed and water. […] To the rats in the control group, only water was forcedly administered per os every day. After two weeks, 0.2 ml of blood was collected from the carotid artery of the rat under anesthesia, and centrifuged to obtain serum. Using 25 μl of the serum, serum creatinine (Scr) was measured by a creatinine analytical instrument (Beckman). Using 10 μl of the serum, urea nitrogen (BUN) was measured by a BUN analytical instrument (Beckman). Creatinine clearance was evaluated as follows:
After serum creatinine measurement, rats were placed in urinary metabolic cages for 24 hours to collect urine. Urinary creatine concentration (Ucr) was measured by a creatinine analytical instrument, and total volume of urination (Uvol) was also measured. Creatinine clearance (CCr) was calculated by the following formula: [formula]

For assay [4], the system named is kidney disease model rats. Description: Action to depress blood pressure in kidney disease model rats (tail cuff). The format is in vivo, Sprague-Dawley female rats. As to conditions: 20 mg/kg per os; after two days; control 210 mmHg. On the procedure:
(§5) The compounds of the present invention and the reference substance were forcedly administered per os to kidney disease model rats, and the action to depress blood pressure was observed. The kidney disease model rats were prepared by ligature of branches of renal artery in accordance with the conventional method, that is, the left hilum renalis of Sprague-Dawley female rats was exposed under anesthesia, and one of four secondary branches of renal artery was left unligated, while the remaining three branches were ligated, respectively. After a week, the hilum renalis (artery, vein, and ureter) of the right kidney were further ligated to thereby prepare the rats whose renal function was lowered to approximately 1/8 of the normal function. Each group consisted of eight rats. The drugs to be tested (20 mg/kg) were administered to each administering group, and only water was administered to control group. After two days from the administration, the systolic blood pressure was measured by the tail cuff method using a blood pressure measuring apparatus (UR5000; Ueda).

Assay [5] concerns kidney disease model rats. Nature of the assay: Action to survival time of kidney diseased animals. The following applies: 20 mg/kg/day per os; observation eight weeks (upper limit); control 5.0. The format is in vivo, Sprague-Dawley female rats. On the procedure: as §5
The kidney disease model rats were prepared as in Example 21. Fifteen groups (8 rats per group) were prepared in a manner so that there was no major difference between the groups in the serum creatinine value and the urea nitrogen value indicating renal function. The rats in each group were allowed to freely take up feed and water. […] To the rats in the control group, only water was forcedly administered per os every day. If kidney diseases are aggravated, the rat will die of uremia. Thus, the survival time was observed as comprehensive indication of the improvement effect on the kidney diseases. The observation period was eight weeks. Thus if all rats survived, the average survival time is eight weeks and it is an upper limit.

Compound `CCCCC(=O)Nc1c(NCCCc2ccccc2)ncnc1NCc1ccc(C(=O)O)cc1` [Compound No. 9, 4-[[(6-phenylpropylamino-5-valeramido)pyrimidin-4-yl]aminomethyl]benzoic acid] returned an inhibition at 100 µM in assay [1] of 6%. Besides, in assay [2], testing at 100 µM gave an inhibition of 0%. In assay [3], the “Creatinine clearance (CCr)” value was 0.31 mL/min; the “Creatinine (serum, Scr)” value was determined as 1.6 mg/dL; the “Urea nitrogen (BUN)” value was 80 mg/dL. For the same compound, in assay [4], the “Blood pressure (average systolic)” value is given as 204 mmHg. In assay [5], this compound yielded an Average survival time of 6.9 weeks.

As for `CCCCC(=O)Nc1c(NCCc2ccccc2)ncnc1NCc1ccc(OC)cc1` [compound 90, 4-[[(6-phenethylamino-5-valeramido)pyrimidin-4-yl]aminomethyl]anisole], the inhibition at 100 µM in assay [1] was found to be 20%. Moreover, in assay [2], the inhibition at 100 µM turned out to be 0%. In assay [3], the “Creatinine clearance (CCr)” value stood at 0.29 mL/min; the “Creatinine (serum, Scr)” value came out at 1.7 mg/dL; the “Urea nitrogen (BUN)” value is 82 mg/dL. Moreover, the “Blood pressure (average systolic)” value in assay [4] turned out to be 208 mmHg. Besides, the Average survival time in assay [5] is 6.9 weeks.

On to `CCCCC(=O)Nc1c(NCc2ccccc2)ncnc1NCc1ccc(C(=O)O)cc1` [Compound No. 7, 4-[[(6-benzylamino-5-valeramido)pyrimidin-4-yl]aminomethyl]benzoic acid], for which the inhibition at 100 µM in assay [1] is 1%. Moreover, in assay [2], testing at 100 µM gave an inhibition of 0%. Besides, in assay [3], the “Creatinine clearance (CCr)” value worked out at 0.33 mL/min; the “Creatinine (serum, Scr)” value came to 1.6 mg/dL; the “Urea nitrogen (BUN)” value amounted to 80 mg/dL. Besides, the “Blood pressure (average systolic)” value in assay [4] was 208 mmHg. For the same compound, the Average survival time in assay [5] is reported as 7.0 weeks.

The compound `CCCCC(=O)Nc1c(NCCc2ccccc2)ncnc1NCc1ccc(C(=O)O)cc1` [Compound No. 8, 4-[[(6-phenethylamino-5-valeramido)pyrimidin-4-yl]aminomethyl]benzoic acid] yielded an inhibition at 100 µM in assay [1] of 0%. For the same compound, in assay [2], testing at 100 µM gave an inhibition of 0%. In assay [3], the “Creatinine clearance (CCr)” value amounted to 0.33 mL/min; the “Creatinine (serum, Scr)” value is 1.6 mg/dL; the “Urea nitrogen (BUN)” value turned out to be 79 mg/dL. For the same compound, the “Blood pressure (average systolic)” value in assay [4] is 203 mmHg. The compound further yielded an Average survival time in assay [5] of 7.1 weeks.

In turn, `CCCCC(=O)Nc1c(NCc2ccc(C(=O)O)cc2)ncnc1OCc1ccccc1` [Compound No. 11, 4-[[(6-benzyoloxy-5-valermido)pyrimidin-4-yl]aminomethyl]benzoic acid] gave a negative-log IC50 (pIC50) in assay [1] of 4.82. In assay [3], the “Creatinine clearance (CCr)” value was 0.35 mL/min; the “Creatinine (serum, Scr)” value stood at 1.6 mg/dL; the “Urea nitrogen (BUN)” value came out at 78 mg/dL. In addition, in assay [4], the “Blood pressure (average systolic)” value amounted to 202 mmHg. In assay [5], this compound displayed an Average survival time of 7.5 weeks.

Turning to `CCCCC(=O)Nc1c(NCc2ccc(C(=O)O)cc2)ncnc1OC` [compound 2, 4-[[(6-methoxy-5-valeramido)pyrimidin-4-yl]aminomethyl]benzoic acid], in assay [1], the negative-log IC50 (pIC50) was 4.55. For the same compound, in assay [2], the inhibition at 100 µM is 0%. In addition, in assay [3], the “Creatinine clearance (CCr)” value stood at 0.35 mL/min; the “Creatinine (serum, Scr)” value amounted to 1.6 mg/dL; the “Urea nitrogen (BUN)” value is 78 mg/dL. Moreover, the “Blood pressure (average systolic)” value in assay [4] is recorded as 201 mmHg. The Average survival time in assay [5] stood at 7.5 weeks.

Regarding `CCCCC(=O)Nc1c(NCc2ccccc2)ncnc1NCc1ccc(OC)cc1` [Compound No. 89, 4-[[(6-benzylamino-5-valeramido)pyrimidin-4-yl]aminomethyl]anisole], the inhibition at 100 µM in assay [1] came to 11%. The compound also registered an inhibition at 100 µM in assay [2] of 0%. Further, in assay [3], the “Creatinine clearance (CCr)” value was found to be 0.33 mL/min; the “Creatinine (serum, Scr)” value was found to be 1.6 mg/dL; the “Urea nitrogen (BUN)” value is 80 mg/dL. Also, the “Blood pressure (average systolic)” value in assay [4] was determined as 204 mmHg. In assay [5], this compound gave an Average survival time of 7.0 weeks.

In assay [1], `CCCCC(=O)Nc1c(NCc2ccc(OC)cc2)ncnc1NCc1ccc(C(=O)O)cc1` [Compound No. 10] came in with an inhibition at 100 µM of 6%. In assay [2], the inhibition at 100 µM was 0%. Besides, in assay [3], the “Creatinine clearance (CCr)” value came to 0.33 mL/min; the “Creatinine (serum, Scr)” value is 1.6 mg/dL; the “Urea nitrogen (BUN)” value was determined as 81 mg/dL. Moreover, the “Blood pressure (average systolic)” value in assay [4] was 208 mmHg. In addition, the Average survival time in assay [5] was 7.0 weeks.

Consider `CCCCC(=O)Nc1c(NCc2ccc(C(=O)O)cc2)ncnc1N(C)Cc1ccccc1` [Compound No. 61, 4-[[(6-N-benzylmethylamino-5-valeramido)pyrimidin-4-yl]aminomethyl]benzoic acid], for which the inhibition at 100 µM in assay [1] worked out at 42%. Also, the inhibition at 100 µM in assay [2] came out at 0%. Besides, in assay [3], the “Creatinine clearance (CCr)” value was 0.32 mL/min; the “Creatinine (serum, Scr)” value was determined as 1.6 mg/dL; the “Urea nitrogen (BUN)” value came to 81 mg/dL. In addition, the “Blood pressure (average systolic)” value in assay [4] turned out to be 205 mmHg. In assay [5], this compound displayed an Average survival time of 6.9 weeks.
